This passage reports MIC50 and MIC90 results from ChEMBL document CHEMBL1155149, “In vitro activities of 15 antimicrobial agents against 110 toxigenic clostridium difficile clinical isolates collected from 1983 to 2004” (2007).

In brackets after ≈: the same amount, converted by molar mass.

In the experiment the test system is Clostridioides difficile. Description: Antimicrobial activity against Clostridium difficile clinical isolates by agar dilution method. The experiment is classed as functional.
Take `C[C@@H](O)[C@H]1C(=O)N2C(C(=O)O)=C(S[C@@H]3CN[C@H](CNS(N)(=O)=O)C3)[C@H](C)[C@H]12` [DORIPENEM]: the MIC50 was 1 µg/mL (≈ 2.38 µM) and the MIC90 came to 2 µg/mL (≈ 4.76 µM).

Turning to `CCS(=O)(=O)CCn1c([N+](=O)[O-])cnc1C` [TINIDAZOLE], the MIC50 worked out at 0.125 µg/mL (≈ 0.506 µM) and the MIC90 is 0.25 µg/mL (≈ 1.01 µM).

`COc1c(N2CCNC(C)C2)c(F)cc2c(=O)c(C(=O)O)cn(C3CC3)c12` (stereo unspecified) [GATIFLOXACIN] came in with an MIC50 of 1 µg/mL (≈ 2.66 µM) and an MIC90 of 16 µg/mL (≈ 42.6 µM).

`CN[C@H](CC(C)C)C(=O)N[C@H]1C(=O)N[C@@H](CC(N)=O)C(=O)N[C@H]2C(=O)N[C@H]3C(=O)N[C@H](C(=O)N[C@H](C(=O)O)c4cc(O)cc(O)c4-c4cc3ccc4O)[C@H](O)c3ccc(c(Cl)c3)Oc3cc2cc(c3O[C@@H]2O[C@H](CO)[C@@H](O)[C@H](O)[C@H]2O[C@H]2C[C@](C)(N)[C@H](O)[C@H](C)O2)Oc2ccc(cc2Cl)[C@H]1O` [VANCOMYCIN] had an MIC50 of 1 µg/mL (≈ 0.69 µM) and an MIC90 of 1 µg/mL (≈ 0.69 µM).

With `CC(=O)Oc1ccccc1C(=O)Nc1ncc([N+](=O)[O-])s1` [NITAZOXANIDE], the MIC50 was found to be 0.06 µg/mL (≈ 0.195 µM) and the MIC90 is 0.125 µg/mL (≈ 0.407 µM).

In turn, `CO[C@H]1/C=C/O[C@@]2(C)Oc3c(C)c(O)c4c(=O)c(c5oc6cc(N7CCN(CC(C)C)CC7)cc(O)c6nc-5c4c3C2=O)NC(=O)/C(C)=C\C=C\[C@H](C)[C@H](O)[C@@H](C)[C@@H](O)[C@@H](C)[C@H](OC(C)=O)[C@@H]1C` [RIFALAZIL] gave an MIC50 of 0.0075 µg/mL (≈ 0.00797 µM) and an MIC90 of 0.03 µg/mL (≈ 0.0319 µM).

`CCc1c(Cl)c(O)c(Cl)c(O)c1C(=O)O[C@H]1[C@H](O)[C@H](OC)[C@H](OC/C2=C\C=C\C[C@H](O)/C(C)=C/[C@H](CC)[C@@H](O[C@@H]3OC(C)(C)[C@@H](OC(=O)C(C)C)[C@H](O)[C@@H]3O)/C(C)=C/C(C)=C/C[C@@H]([C@@H](C)O)OC2=O)O[C@@H]1C` [FIDAXOMICIN] showed an MIC50 of 0.125 µg/mL (≈ 0.118 µM) and an MIC90 of 0.125 µg/mL (≈ 0.118 µM).

`Cc1ncc([N+](=O)[O-])n1CCO` [METRONIDAZOLE] had an MIC50 of 0.125 µg/mL (≈ 0.73 µM) and an MIC90 of 0.25 µg/mL (≈ 1.46 µM).

`C[C@H]1COc2c(N3CCN(C)CC3)c(F)cc3c(=O)c(C(=O)O)cn1c23.C[C@H]1COc2c(N3CCN(C)CC3)c(F)cc3c(=O)c(C(=O)O)cn1c23.O` [LEVOFLOXACIN] showed an MIC50 of 4 µg/mL and an MIC90 of 32 µg/mL.

In turn, `CN(C)c1cc(NC(=O)CNC(C)(C)C)c(O)c2c1C[C@H]1C[C@H]3[C@H](N(C)C)C(O)=C(C(N)=O)C(=O)[C@@]3(O)C(O)=C1C2=O` [TIGECYCLINE] came in with an MIC50 of 0.125 µg/mL (≈ 0.213 µM) and an MIC90 of 0.25 µg/mL (≈ 0.427 µM).

With `O=C(Nc1ncc([N+](=O)[O-])s1)c1ccccc1O` [TIZOXANIDE], the MIC50 stood at 0.06 µg/mL (≈ 0.226 µM) and the MIC90 came out at 0.125 µg/mL (≈ 0.471 µM).

As for `C[C@@H](O)[C@H]1C(=O)N2C(C(=O)O)=C(S[C@@H]3CN[C@H](C(=O)N(C)C)C3)[C@H](C)[C@H]12` [MEROPENEM], the MIC50 amounted to 2 µg/mL (≈ 5.22 µM) and the MIC90 was 2 µg/mL (≈ 5.22 µM).

Take `CO[C@H]1/C=C/O[C@@]2(C)Oc3c(C)c(O)c4c(O)c(c5c(nc6cc(C)ccn65)c4c3C2=O)NC(=O)/C(C)=C\C=C\[C@H](C)[C@H](O)[C@@H](C)[C@@H](O)[C@@H](C)[C@H](OC(C)=O)[C@@H]1C` [RIFAXIMIN]: the MIC50 came out at 0.0075 µg/mL (≈ 0.00954 µM) and the MIC90 amounted to 0.015 µg/mL (≈ 0.0191 µM).

The term MIC50 denotes an inhibitory concentration at the 50% level, which refers to growth in some studies and to a panel of isolates in others. High values mean lower susceptibility, low ones higher susceptibility. A word on the MIC90: it is an inhibitory concentration at the 90% level, which refers to growth in some studies and to a panel of isolates in others.
